Measurements from patent publication US20080318070A1, “Water-Soluble Preflux and Usage of the Same” (SHIKOKU CHEMICALS CORPORATION, priority 2005, published 2008).

Legend:
[1] = Solubilization test of imidazole compounds; assay type: physicochemical; details: 0.20 g imidazole compound dissolved in 2.0 g carboxylic acid compound; ion-exchange water added until solution became clouded; larger = better solubilization
Experimental: Solubilization Test of Imidazole Compounds
After 0.20 g of 2-pheny-(3,4-dichlorophenyl)imidazole was dissolved in 2.0 g of the carboxylic acid compound for use in the invention, there was measured an amount of water required until the solution became clouded when ion-exchange water was added. The larger amount of water is judged to be more excellent in imidazole compound-solubilization performance of the carboxylic acid compound.
It is recognized that a chemical structure wherein an alkoxy group (R^1—O—) and a carboxymethyl group (—CH2COOH) or a carboxyethyl group (—C2H4COOH) is combined via an alkylene ether chain (—CH2CH(R^2)—O—) enhances the imidazole compound-solubilization performance.

[2] = reported; cited from earlier work

SMILES | Amount of water added [1] [mL] | metabolism in the living body [2] | toxic effect [2]
CCOCCOCCOCC(=O)O [Compound C, 2-[2-(2-ethoxyethoxy)ethoxy]acetic acid] | 3.6 |  | 
CCCOCC(C)OCC(C)OCC(=O)O (centres unmarked) [Compound F, 2-[2-(2-propoxy-1-methylethoxy)-1-methylethoxy]acetic acid] | 3.0 |  | 
CCOCC(=O)O [Compound A, 2-Ethoxyacetic acid] | 3.3 |  | 
CCCCOCC(C)OCC(C)OCC(C)OCC(=O)O (centres unmarked) [Compound G, 2-{2-[2-(2-butoxy-1-methylethoxy)-1-methylethoxy]-1-methylethoxy}acetic acid] | 2.0 |  | 
CCCCOCC(=O)O [2-(n-Butoxy)acetic acid] | 1.0 |  | 
CCCOCC(=O)O [2-(n-Propoxy)acetic acid] | 2.8 |  | 
COCC(=O)O [methoxyacetic acid] |  | difficult to metabolize in the living body | causing testicular atrophy or teratogenicity
